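In this assay, cells in 96-well plates receive the compound at five concentrations for 48 hours. Endpoints are linearly interpolated between the surrounding concentrations. TGI: concentration producing complete growth inhibition.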
What was measured:
Experiment in all cases: NCI-60 cell line screen, 48 h
M14 melanoma = test system: M14 melanoma
OVCAR-8 ovarian = test system: OVCAR-8 ovarian
PC-3 prostate = test system: PC-3 prostate
RPMI-8226 leukemia = test system: RPMI-8226 leukemia
SF-268 CNS = test system: SF-268 CNS
SNB-75 CNS = test system: SNB-75 CNS
SW-620 colon = test system: SW-620 colon
UACC-62 melanoma = test system: UACC-62 melanoma
RXF 393 renal = test system: RXF 393 renal
TK-10 renal = test system: TK-10 renal
CAKI-1 renal = test system: CAKI-1 renal

Structure (SMILES)	TGI (M14 melanoma)	TGI (OVCAR-8 ovarian)	TGI (PC-3 prostate)	TGI (RPMI-8226 leukemia)	TGI (SF-268 CNS)	TGI (SNB-75 CNS)	TGI (SW-620 colon)	TGI (UACC-62 melanoma)	TGI (RXF 393 renal)	TGI (TK-10 renal)	TGI (CAKI-1 renal)
O=C1/C(=C/c2ccccc2)NC(=S)N1CN1CCCCC1	> 100 µM	> 100 µM	> 100 µM	> 100 µM	> 100 µM	> 100 µM	> 100 µM	> 100 µM			
CCOC(=O)C(C)(C)Oc1ccc2c(-c3ccc(Cl)cc3)c(-c3ccc(Cl)cc3)c(=O)oc2c1	> 100 µM	> 100 µM		> 100 µM	> 100 µM	> 100 µM	> 100 µM	> 100 µM	> 100 µM	> 100 µM	
CN(Cc1cnc2nc(N)nc(N)c2n1)c1ccc(C(=O)NC(CCC(=O)NC(CC(P(=O)(O)O)P(=O)(O)O)C(=O)O)C(=O)O)cc1 (stereo not given)	> 100 µM	> 100 µM	> 100 µM		> 100 µM	> 100 µM	> 100 µM	> 100 µM	> 100 µM	> 100 µM	
N[C@H](CCC(=O)NCP(=O)(O)O)C(=O)O		> 100 µM	> 100 µM	> 100 µM			> 100 µM	> 100 µM		25.6 µM	
CCC(=O)/C(=C\I)c1ccccc1	4.72 µM	3.68 µM	9.34 µM	> 100 µM	40.3 µM	3.48 µM		9.77 µM	3.01 µM	28.3 µM	
COc1ccc2[nH]c(C(=O)N3CC(CCl)c4c3cc(N)c3ccccc43)cc2c1 (stereo not given)		< 0.0177 µM	0.0447 µM	0.138 µM	< 0.01 µM		0.132 µM	< 0.0116 µM		11.4 µM	< 0.01 µM
CCCCn1c2ccccc2c2ccc3c(c21)C(=O)C=CC3=O	> 100 µM	> 100 µM		> 100 µM	> 100 µM	0.638 µM	> 100 µM	> 100 µM		> 100 µM	> 100 µM
COCC12CCC(OC)C34C5CC6(O)C(OC)CC(OC(C)=O)(C5C6OC(=O)c5ccccc5)C(C(OC)C13)C4N(C)C2 (stereo not given)	> 100 µM	> 100 µM	> 100 µM	> 100 µM	> 100 µM		> 100 µM	> 100 µM	> 100 µM	> 100 µM	> 100 µM
CCN(CC)CCOc1ccc(C(O)(Cc2ccc(OC)cc2)c2ccccc2)cc1 (stereo not given)	27.8 µM	> 100 µM		39.7 µM	52 µM	27.6 µM	34.5 µM	31 µM	30.4 µM	76.4 µM	50.9 µM
COC(=O)c1ccccc1C1=C([N+](=O)[O-])C(c2ccccc2)C(C#N)=C(N)O1 (stereo not given)	> 100 µM	> 100 µM	> 100 µM	> 100 µM	> 100 µM	> 100 µM	> 100 µM	> 100 µM	95.2 µM	> 100 µM	
COC12CCC(C(C(=O)c3ccccc3)=C1C(=O)c1ccccc1)C(O)C2 (stereo not given)	> 100 µM	> 100 µM		> 100 µM	> 100 µM	> 100 µM	> 100 µM	> 100 µM		> 100 µM	> 100 µM
S=c1sc2cscc2s1	39.9 µM	45.9 µM		> 100 µM	64.5 µM	35.8 µM	41.1 µM	34 µM	51.5 µM	40.2 µM	31.4 µM
C[n+]1c2ccccc2c(/C=N\NS(=O)(=O)c2ccc(Cl)cc2)c2ccccc21	> 100 µM	> 100 µM		> 100 µM	> 100 µM	> 100 µM	> 100 µM	> 100 µM	> 100 µM	> 100 µM	> 100 µM
COC1=C2C=[N+](C)C3C(=C2C=CC1OC)Cc1cc2c(cc13)OCO2 (stereo not given)	30.1 µM	> 100 µM	39.3 µM	27.1 µM	20.3 µM	28 µM	> 100 µM	21.6 µM		32.4 µM	29.3 µM
CCOC(=O)c1[nH]c2cccc3c2c1CC[C@H](NC(=O)C(F)(F)F)C3=O	> 100 µM	> 100 µM	> 100 µM	> 100 µM	> 100 µM	56.7 µM	> 100 µM			> 100 µM	28 µM
O=C(O)CCc1ccc2c(c1)CC1(Cc3ccccc3C1)C2	> 100 µM	> 100 µM	> 100 µM	> 100 µM		96.4 µM		> 100 µM	> 100 µM	> 100 µM	
Cc1c2ccccc2c(C)n2c1nc1ccccc12	24.1 µM	> 100 µM	25.2 µM	> 100 µM	30 µM	27.7 µM	> 100 µM	23.5 µM	21.5 µM	44.4 µM	
Cc1c(-c2nnc(-c3ccccc3)o2)c(=O)n(-c2ccccc2)n1C	> 100 µM	> 100 µM		> 100 µM	> 100 µM	> 100 µM	> 100 µM	> 100 µM	> 100 µM	> 100 µM	
C=C1CCCC2[C@](C)(CC3=C(O)C(=O)C=C(OC)C3=O)[C@@H](C)CC[C@]12C (stereo not given in full)	5.03 µM	> 100 µM		40.2 µM	> 100 µM	> 100 µM	53.3 µM	6.63 µM	10.6 µM	> 100 µM	27.9 µM
O=C1CS(=O)(=O)C(c2cccc(Oc3ccccc3)c2)N1c1ccccc1 (stereo not given)	38.7 µM	> 100 µM	66.8 µM		75.8 µM	> 100 µM	> 100 µM	27 µM	38.7 µM	60 µM	58.3 µM
CC(=O)OC(C)(C)CCC(=O)[C@](C)(O)[C@H]1[C@H](O)C[C@@]2(C)[C@@H]3CC=C4C(C)=C(OC5OC(CO)C(O)C(O)C5O)C(=O)C[C@@H]4[C@]3(C)C(=O)C[C@]12C (stereo not given in full)	> 100 µM	> 100 µM	> 100 µM		> 100 µM	> 100 µM	> 100 µM	> 100 µM	> 100 µM	> 100 µM	> 100 µM
COP(=O)(O)C(N)Cc1c[nH]c2ccccc12 (stereo not given)	> 100 µM	> 100 µM	> 100 µM	> 100 µM			> 100 µM			> 100 µM	> 100 µM

From PubChem BioAssay (NCI)
